# Experimental data from the supplement of paper PMC10307832.
# Tests used:
# Assay in all cases: relative viability (nuclei count vs DMSO), 5 days (fraction); higher = more cells survive
# [1] = compound: C=CCn1c(=O)c2cnc(Nc3ccc(N4CCN(C)CC4)cc3)nc2n1-c1cccc(C(C)(C)O)n1 [Adavosertib] + C[C@]1(O)C[C@@H](c2nc(-c3ccc4ccc(-c5ccccc5)nc4c3)c3c(N)nccn32)C1 [Linsitinib] (partner 1 µM)
# Method in brief: (§1)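 One day after seeding in 1536-well plates, lung cancer cell lines were dosed by pin tool. Dosing was either single-drug or a fixed anchor-drug dose plus five library-drug doses (not always all listed) in √10 steps. After 5 days, nuclei were stained in one fix-and-stain step and counted on 4× images, and relative viability is the nuclei count of treated wells over that of vehicle wells, given as the median of duplicate plates.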
# [2] = compound: COc1nc(N)nc2c1ncn2[C@@H]1O[C@H](CO)[C@@H](O)[C@@H]1O [Nelarabine] + C[C@@H](Oc1cc(-c2cnn(C3CCNCC3)c2)cnc1N)c1c(Cl)ccc(F)c1Cl [Crizotinib] (partner 1 µM)
# Method in brief: as §1
# [3] = compound: COc1nc(N)nc2c1ncn2[C@@H]1O[C@H](CO)[C@@H](O)[C@@H]1O [Nelarabine] + Nc1nc2[nH]cc(CCc3ccc(C(=O)N[C@@H](CCC(=O)O)C(=O)O)cc3)c2c(=O)[nH]1 [Pemetrexed] (partner 0.2 µM)
# Method in brief: as §1
# [4] = compound: COc1nc(N)nc2c1ncn2[C@@H]1O[C@H](CO)[C@@H](O)[C@@H]1O [Nelarabine] + O=C(c1cc(Cc2n[nH]c(=O)c3ccccc23)ccc1F)N1CCN(C(=O)C2CC2)CC1 [Olaparib] (partner 8 µM)
# Method in brief: as §1
Cell Line,relative viability ([1]; first compound 0.01 µM),relative viability ([1]; first compound 0.03162 µM),relative viability ([1]; first compound 0.1 µM),relative viability ([1]; first compound 0.3162 µM),relative viability ([2]; first compound 0.01 µM),relative viability ([2]; first compound 0.03162 µM),relative viability ([2]; first compound 0.1 µM),relative viability ([2]; first compound 0.3162 µM),relative viability ([2]; first compound 1 µM),relative viability ([3]; first compound 0.01 µM),relative viability ([3]; first compound 0.03162 µM),relative viability ([3]; first compound 0.1 µM),relative viability ([3]; first compound 0.3162 µM),relative viability ([3]; first compound 1 µM),relative viability ([4]; first compound 0.01 µM),relative viability ([4]; first compound 0.03162 µM),relative viability ([4]; first compound 0.1 µM),relative viability ([4]; first compound 0.3162 µM),relative viability ([4]; first compound 1 µM)
NCI-H1666,0.763,1.14,0.813,0.754,1.03,0.679,0.949,0.975,1.03,0.957,0.919,0.872,0.936,0.834,0.681,0.638,0.737,0.665,0.769
COR-L23,0.965,0.904,0.745,0.209,0.692,0.706,0.574,0.617,0.628,0.205,0.194,0.193,0.184,0.203,0.432,0.31,0.301,0.373,0.363
SW 1573,0.919,0.864,0.911,0.886,0.788,0.769,0.745,0.733,0.717,0.957,0.908,1.01,0.838,0.877,0.52,0.469,0.553,0.565,0.66
NCI-H23,0.53,0.612,0.444,0.29,0.505,0.485,0.297,0.495,0.515,1.04,0.729,0.771,0.71,0.666,0.32,0.235,0.294,0.33,0.335
NCI-H1944,1.17,1.13,1.23,1,1.12,1.06,1.16,1.08,1.02,0.659,0.584,0.589,0.617,0.61,0.486,0.436,0.481,0.435,0.419
PC-3 [JPC-3],0.903,0.935,0.929,0.985,1.15,1.02,1.01,0.977,0.968,0.9,0.866,1.36,1.17,0.751,1.46,1.2,1.1,1.25,1.22
NCI-H2126,0.695,0.712,0.703,0.722,1.19,1.07,1.01,1.05,0.998,0.879,0.757,0.692,0.765,0.807,1.05,0.981,0.951,0.961,0.967
HCC-827,0.985,0.974,1.03,0.991,0.902,0.811,0.748,0.682,0.607,0.231,0.235,0.27,0.287,0.231,0.673,0.622,0.571,0.571,0.463
H3255,0.967,1.01,0.993,0.957,1.04,0.821,0.906,0.881,0.913,0.531,0.571,0.557,0.551,0.571,0.624,0.553,0.54,0.583,0.558
NCI-H838,1.01,1.05,1,1.09,0.975,0.575,0.766,1.02,0.792,0.268,0.252,0.287,0.278,0.282,0.839,0.743,0.849,0.89,0.852
NCI-H1734,0.992,0.953,0.916,0.938,0.694,0.668,0.568,0.772,0.804,0.416,0.473,0.368,0.48,0.464,0.688,0.597,0.689,0.61,0.654
HCC-44,0.628,0.659,0.683,0.794,0.989,0.782,0.783,0.819,0.739,0.642,0.662,0.646,0.69,0.633,1.07,0.972,0.948,0.975,0.986
HOP-62,0.981,1.02,1.09,1.03,1.08,0.933,0.998,0.91,0.831,0.412,0.347,0.307,0.318,0.33,0.479,0.315,0.283,0.368,0.458
NCI-H3122,1.08,0.954,1.06,1.06,0.265,0.197,,0.301,0.268,0.194,0.18,,0.204,0.195,0.668,0.607,,0.745,0.661
NCI-H2405,0.959,0.966,1,0.995,0.918,0.824,0.769,0.784,0.818,0.939,1.11,1.09,1.16,1.01,0.948,0.834,0.83,0.899,0.896
UMC-11,0.959,0.99,1.19,1.02,0.52,0.499,0.476,0.652,0.495,0.992,0.696,0.94,0.816,0.884,0.36,0.469,0.356,0.386,0.357
COR-L 105,0.818,1.13,0.976,0.906,0.998,0.752,0.678,0.894,0.844,1.11,1.26,1.16,1.15,1.08,0.554,0.666,0.592,0.697,0.541

Cell Line,relative viability ([1]; first compound 0.01 µM),relative viability ([1]; first compound 0.03162 µM),relative viability ([1]; first compound 0.1 µM),relative viability ([1]; first compound 0.3162 µM),relative viability ([2]; first compound 0.01 µM),relative viability ([2]; first compound 0.03162 µM),relative viability ([2]; first compound 0.1 µM),relative viability ([2]; first compound 0.3162 µM),relative viability ([2]; first compound 1 µM),relative viability ([3]; first compound 0.01 µM),relative viability ([3]; first compound 0.03162 µM),relative viability ([3]; first compound 0.1 µM),relative viability ([3]; first compound 0.3162 µM),relative viability ([3]; first compound 1 µM),relative viability ([4]; first compound 0.01 µM),relative viability ([4]; first compound 0.03162 µM),relative viability ([4]; first compound 0.1 µM),relative viability ([4]; first compound 0.3162 µM),relative viability ([4]; first compound 1 µM)
NCI-H2085,0.872,0.996,0.988,0.827,0.966,0.618,0.766,0.88,0.965,0.906,0.865,0.93,0.871,0.87,0.815,0.768,0.731,0.802,0.74
NCI-H1792,0.601,0.519,0.493,0.559,0.821,,1.29,1.15,1.03,1.09,0.658,1.58,0.937,0.824,0.52,0.42,0.581,0.566,0.436
LK-2,0.761,0.742,0.522,0.424,0.222,,0.223,0.205,0.206,0.191,,0.26,0.273,0.294,0.689,,0.701,0.601,0.635
NCI-H2009,1.23,1.24,1.24,1.2,1.12,0.99,0.971,1.08,1.05,1.09,1.05,1.07,1.08,1.11,0.746,0.607,0.834,0.725,0.855
BEN,0.97,0.886,0.921,1.06,1.37,0.869,0.896,0.88,0.929,0.788,0.822,0.765,0.837,0.752,1.3,1.08,1.11,1.04,1.25
RERF-LC-KJ,0.925,0.921,0.848,0.796,0.871,0.954,0.82,0.846,0.902,0.477,0.424,0.458,0.489,0.49,0.946,1,1.11,0.987,0.852
LU99A,0.575,0.656,0.499,0.417,0.557,0.534,0.582,0.627,0.622,0.197,0.154,0.173,0.192,0.223,0.276,0.239,0.252,0.249,0.26
PC-14,0.915,0.957,0.942,0.575,0.909,0.89,0.875,0.832,0.868,0.136,0.138,0.125,0.142,0.158,0.265,0.205,0.31,0.251,0.294
NCI-H650,0.785,0.926,0.87,0.712,0.627,0.548,0.613,0.693,0.746,0.986,0.814,0.913,0.971,1.02,0.525,0.369,0.413,0.402,0.405
NCI-H1651,1.03,1.02,0.98,0.783,0.959,0.818,0.902,0.891,0.899,0.406,0.548,0.63,0.643,0.564,0.183,0.195,0.213,0.171,0.193
NCI-H2023,0.638,0.742,0.505,0.392,0.831,0.672,0.59,0.578,0.605,0.353,0.365,0.268,0.244,0.228,0.597,0.497,0.503,0.422,0.455
NCI-H2087,0.906,1.11,1.07,0.87,1.22,0.965,0.88,0.819,0.84,0.782,0.67,0.723,0.7,0.717,0.713,0.421,0.73,0.68,0.72
EKVX,0.941,0.966,0.989,1.07,1.16,0.83,0.894,1.41,0.979,0.431,0.436,0.417,0.506,0.46,1.11,0.852,0.817,0.775,0.866
NCI-H1975,1,0.951,0.891,0.522,1.15,0.91,1.11,1.08,1.1,0.376,0.278,0.312,0.305,0.303,1.04,0.942,0.823,0.856,0.797
NCI-H520,0.883,0.794,1.11,0.874,0.607,0.519,0.871,1.07,0.851,0.768,0.584,0.687,0.842,0.786,0.29,0.29,0.343,0.366,0.363
NCI-H647,1.12,1.04,1.28,0.454,1.37,1.22,1.13,1.41,1.14,0.17,0.162,0.154,0.194,0.217,0.57,0.498,0.633,0.541,0.647
NCI-H1755,0.997,0.956,0.992,0.997,0.941,0.908,0.874,0.969,0.946,0.654,0.377,0.363,0.501,0.451,0.878,0.966,0.931,0.938,0.927
